# According to patent publication US8778966B2, “Quinolinone derivatives as PARP and tank inhibitors” (Janssen Pharmaceutica, NV, priority 2007, dated 2014):
# Test system: HCT116 cells
# Assay: Mitotic arrest assay on HCT116 cells (phospho-histone H3 Ser10)
# Assay type: cell-based, human
# Details: HCT116 cells; lowest active dose; the values are: pLAD (−log M lowest active dose)
# Summary of the method: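 Seeded overnight, then compound-treated 6 h at 37 °C (≤0.1% DMSO); fixed, stained with Alexa Fluor 488 anti-phospho-H3 (Ser10) plus Hoechst 33342, imaged on InCell Analyzer 1000. Blank-subtracted signal divided by SD (sigma), triplicate; value is lowest dose giving sigma >5 (LAD).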
row,Compound,Mitotic arrest HCT116 LAD
1,"CCc1cc2ccc(C(C)(C#N)Cc3cccc(C#N)n3)cc2[nH]c1=O (single isomer, unassigned) [Compound 206]",5
2,"CCc1cc2ccc(C(C)(C#N)Cc3cccc(C#N)n3)cc2[nH]c1=O (single isomer, unassigned) [Compound 207]",7
3,CCc1cc2ccc(C(C)(C#N)Cc3cccc(CCC#N)c3)cc2[nH]c1=O (stereo not shown) [Compound 169],6

# Same assay, conditions: Homo sapiens, HCT-116, HCT116 cells; lowest active dose; read-out: Mitotic arrest HCT116 LAD (converted)
row,Compound,minimal effective concentration [µM]
1,"CCc1cc2ccc([C@@](C)(C#N)Cc3cccc(N(C)C)c3)cc2[nH]c1=O (single isomer, unassigned) [Compound 258]",0.1
2,"CCc1cc2ccc([C@](C)(C#N)Cc3cccc(N(C)C)c3)cc2[nH]c1=O (single isomer, unassigned) [Compound 259]",10
3,"CCC[C@@](C#N)(Cc1ccccc1)c1ccc2cc(CC)c(=O)[nH]c2c1 (single isomer, unassigned) [Compound 263]",1
4,"CCC[C@](C#N)(Cc1ccccc1)c1ccc2cc(CC)c(=O)[nH]c2c1 (single isomer, unassigned) [Compound 264]",10
5,"CCc1cc2ccc([C@@](C)(C#N)Cc3cccc(C#N)c3)cc2[nH]c1=O (single isomer, unassigned) [Compound 268]",10
6,"CCc1cc2ccc([C@](C)(C#N)Cc3cccc(C#N)c3)cc2[nH]c1=O (single isomer, unassigned) [Compound 269]",0.1
7,"CCc1cc2ccc([C@](C)(C#N)C[C@@H]3Cc4cc(C)ccc4O3)cc2[nH]c1=O (single isomer, unassigned) [Compound 400]",10
8,C#Cc1cccc(C[C@](C)(C#N)c2ccc3cc(CC)c(=O)[nH]c3c2)c1 [Compound 2],10
9,C#Cc1cccc(C[C@@](C)(C#N)c2ccc3cc(CC)c(=O)[nH]c3c2)c1 [Compound 3],0.01
10,CCc1cc2ccc(C(C#N)(CC)Cc3ccccc3)cc2[nH]c1=O (stereo not shown) [Compound 32],1
11,COc1ccccc1-c1nc(CC(C)(C#N)c2ccc3cc(C)c(=O)[nH]c3c2)no1 (stereo not shown) [Compound 33],1
12,Cc1cc2ccc(C(C)(C#N)Cc3cccc(C#N)c3)cc2[nH]c1=O (stereo not shown) [Compound 34],0.1
13,Cc1cc2ccc([C@@](C)(C#N)Cc3cccc(C#N)c3)cc2[nH]c1=O [Compound 35],3.16
14,Cc1cc2ccc([C@](C)(C#N)Cc3cccc(C#N)c3)cc2[nH]c1=O [Compound 36],0.1
15,Cc1cc2ccc(C(C)(C#N)Cc3cccc(Cl)c3)cc2[nH]c1=O (stereo not shown) [Compound 37],0.1
16,CC(C)c1cc2ccc(C(C)(C#N)Cc3ccccc3)cc2[nH]c1=O (stereo not shown) [Compound 38],3.16
17,CC(=O)c1cc2ccc(C(C)(C#N)Cc3ccccc3)cc2[nH]c1=O (stereo not shown) [Compound 39],3.16
18,CCc1cc2ccc(C(C)(C#N)Cc3cccc(OC[C@@H](O)CO)c3)cc2[nH]c1=O (stereo partly shown) [Compound 56],3
19,CCc1cc2ccc(C(C)(C#N)Cc3cccc(CNS(C)(=O)=O)c3)cc2[nH]c1=O (stereo not shown) [Compound 170],3
20,C=Cc1cccc(CC(C)(C#N)c2ccc3cc(CC)c(=O)[nH]c3c2)c1 (stereo not shown) [Compound 172],0.3
21,CCc1cc2cc(F)c(C(C)(C#N)Cc3cccc(C#N)c3)cc2[nH]c1=O (stereo not shown) [Compound 175],0.3
22,CCc1c(C)c2ccc(C(C)(C#N)Cc3cccc(C#N)c3)cc2[nH]c1=O (stereo not shown) [Compound 181],0.3
23,CCc1cc2cc(OCCOC)c(C(C)(C#N)Cc3cccc(C#N)c3)cc2[nH]c1=O (stereo not shown) [Compound 182],10
24,CCc1cc2ccc(C(C)(C#N)Cc3cccc(C#CCO)c3)cc2[nH]c1=O (stereo not shown) [Compound 183],0.1

row,Compound,minimal effective concentration [µM]
1,CCc1cc2ccc(C(F)(C#N)Cc3ccccc3)cc2[nH]c1=O (stereo not shown) [Compound 187],3
2,CCc1cc2ccc(C(C)(C#N)CN(C)Cc3ccccc3)cc2[nH]c1=O (stereo not shown) [Compound 189],1
3,CCc1cc2ccc(C(C)(C#N)C(C)c3ccccc3)cc2[nH]c1=O (stereo not shown) [Compound 198],0.3
4,CCc1cc2ccc([C@](C)(C#N)[C@@H](C)c3ccccc3)cc2[nH]c1=O [Compound 199],3
5,CCc1cc2ccc([C@](C)(C#N)[C@H](C)c3ccccc3)cc2[nH]c1=O [Compound 200],0.3
6,CCc1cc2ccc(C(C)(C#N)Cc3cccc(C#C[Si](C)(C)C)n3)cc2[nH]c1=O (stereo not shown) [Compound 210],1
7,C#Cc1cccc(CC(C)(C#N)c2ccc3cc(CC)c(=O)[nH]c3c2)n1 (stereo not shown) [Compound 211],1
8,CCc1cc2ccc(C(C)(C#N)Cc3cccc(N(C)C)n3)cc2[nH]c1=O (stereo not shown) [Compound 213],0.3
9,CCc1cc2ccc(C(C)(C#N)Cc3cccc(I)n3)cc2[nH]c1=O (stereo not shown) [Compound 214],0.3
10,CCOC(=O)c1cccc(CC(C)(C#N)c2ccc3cc(CC)c(=O)[nH]c3c2)n1 (stereo not shown) [Compound 215],1
11,CCc1cc2ccc(C(C)(C#N)Cc3cccc(COC)n3)cc2[nH]c1=O (stereo not shown) [Compound 216],1
12,CCc1cc2ccc(C(C)(C#N)Cc3cccc(OCCOC)n3)cc2[nH]c1=O (stereo not shown) [Compound 219],1
13,CCc1cc2ccc(C(C)(C#N)Cc3cccc(CN)n3)cc2[nH]c1=O (stereo not shown) [Compound 221],3
14,CCc1cc2ccc(C(C)(C#N)Cc3cccc(OCCO)c3)cc2[nH]c1=O (stereo not shown) [Compound 262],0.3
15,CCc1cc2ccc(C(C)(C#N)CCOc3cccc(C(F)(F)F)c3)cc2[nH]c1=O (stereo not shown) [Compound 274],1
16,CCc1cc2ccc(C(C)(C#N)Cc3cccc(CN)c3)cc2[nH]c1=O (stereo not shown) [Compound 290],0.3
17,CCc1cc2ccc(C(C)(C#N)Cc3cccc(/C=C/S(C)(=O)=O)c3)cc2[nH]c1=O (stereo not shown) [Compound 292],0.1
18,CCc1c(Cl)c2ccc(C(C)(C#N)Cc3cccc(C#N)c3)cc2[nH]c1=O (stereo not shown) [Compound 293],0.3
19,CCc1cc2cc(OC)c(C(C)(C#N)Cc3ccccc3)cc2[nH]c1=O (stereo not shown) [Compound 294],3
20,CCc1cc2ccc(C(C)(C#N)Cc3cccc(C#CCOC)c3)cc2[nH]c1=O (stereo not shown) [Compound 297],0.3
21,CCc1cc2ccc(C(C)(C#N)Cc3cccc(C#CCN(C)C)c3)cc2[nH]c1=O (stereo not shown) [Compound 298],1
22,CCc1cc2ccc(C(C)(C#N)CNCc3cccc(C#N)c3)cc2[nH]c1=O (stereo not shown) [Compound 301],1
23,CCc1cc2ccc(C(C)(C#N)Cc3cnc(Cl)nc3Cl)cc2[nH]c1=O (stereo not shown) [Compound 306],10
24,COc1cc(OC)nc(CC(C)(C#N)c2ccc3cc(C)c(=O)[nH]c3c2)n1 (stereo not shown) [Compound 308],0.1

row,Compound,minimal effective concentration [µM]
1,CCOc1cc(OCC)nc(CC(C)(C#N)c2ccc3cc(CC)c(=O)[nH]c3c2)n1 (stereo not shown) [Compound 309],1
2,CCc1cc2ccc(C(C)(C#N)Cc3cccc(Cl)n3)cc2[nH]c1=O (stereo not shown) [Compound 310],0.3
3,CCc1cc2ccc(C(C)(C#N)Cc3ncc(C)c(OC)c3C)cc2[nH]c1=O (stereo not shown) [Compound 311],1
4,CCc1cc2ccc(C(C)(C#N)Cc3ccc(C)nc3)cc2[nH]c1=O (stereo not shown) [Compound 327],3
5,CCc1cc2ccc(C(C)(C#N)Cc3cccc(C#N)n3)cc2[nH]c1=O (stereo not shown) [Compound 329],0.3
6,CCCn1ccnc1CC(C)(C#N)c1ccc2cc(CC)c(=O)[nH]c2c1 (stereo not shown) [Compound 335],3
7,CCc1cc2ccc(C(C)(C#N)Cc3ccc4ccccc4n3)cc2[nH]c1=O (stereo not shown) [Compound 336],1
8,CCc1cc2ccc(C(C)(C#N)Cc3nccn3CC)cc2[nH]c1=O (stereo not shown) [Compound 337],1
9,CCc1cc2ccc(C(C)(C#N)Cc3nc4ccccc4n3C)cc2[nH]c1=O (stereo not shown) [Compound 338],0.3
10,CCc1cc2ccc(C(C)(C#N)Cc3cccc(C)n3)cc2[nH]c1=O (stereo not shown) [Compound 343],0.3
11,CCc1cc2ccc(C(C)(C#N)Cc3cccc(Br)n3)cc2[nH]c1=O (stereo not shown) [Compound 344],0.3
12,CCc1cc2ccc(C(C)(C#N)Cc3cccc(CO)n3)cc2[nH]c1=O (stereo not shown) [Compound 345],0.3
13,CCc1cc2ccc(C(C)(C#N)Cc3ccc(OC)nc3)cc2[nH]c1=O (stereo not shown) [Compound 352],1
14,CCc1cc2ccc(C(C)(C#N)Cc3cccc(OC)n3)cc2[nH]c1=O (stereo not shown) [Compound 353],0.3
15,CCc1cc2ccc(C(C)(C#N)Cc3cnc(OC)nc3Cl)cc2[nH]c1=O (stereo not shown) [Compound 356],0.1
16,CCc1cc2ccc(C(C)(C#N)Cc3cnc(OC)nc3OC)cc2[nH]c1=O (stereo not shown) [Compound 357],0.3
17,CCc1cc2ccc(C(C)(C#N)Cc3cc(OC)nc(OC)n3)cc2[nH]c1=O (stereo not shown) [Compound 358],0.3
18,CCc1cc2ccc(C(C)(C#N)Cc3nc(Cl)cc(N(C)C)n3)cc2[nH]c1=O (stereo not shown) [Compound 359],0.1
19,CCc1cc2ccc(C(C)(C#N)Cc3nccc(OC)n3)cc2[nH]c1=O (stereo not shown) [Compound 360],1
20,CCc1cc2ccc(C(C)(C#N)Cc3cc(OCCOC)nc(C)n3)cc2[nH]c1=O (stereo not shown) [Compound 363],3
21,CCc1cc2ccc(C(C)(C#N)Cc3cc(N(C)C)nc(Cl)n3)cc2[nH]c1=O (stereo not shown) [Compound 364],1
22,CCc1cc2ccc(C(C)(C#N)Cc3cc(OC)nc(C)n3)cc2[nH]c1=O (stereo not shown) [Compound 366],0.3
